Consider one compound from patent US20220267753A1, “RATIONAL THERAPEUTIC TARGETING OF ONCOGENIC IMMUNE SIGNALING STATES IN MYELOID MALIGNANCIES VIA THE UBIQUITIN CONJUGATING ENZYME UBE2N” (CHILDREN'S HOSPITAL MEDICAL CENTER, priority 2019, published 2022).

One may read the pIC50 as −log10 of the IC50, conventionally taken in molar units. Low readings indicate a large IC50, high ones a small IC50.

pIC50: −log10 of the molar value.

One series relates to Cord Blood CD34+. The series can be described thus: Cell proliferation MTS assay. It counts as cell-based, human. The procedure: AML cell lines (5×10^3 cells/well) were seeded in 96-well plates and grown for 24 to 96 h in serum (10%)-containing medium in the presence or absence of inhibitors at the indicated concentrations. Proliferation was analyzed by means of an MTS assay using the CellTiter 96 Aqueous One Solution Cell Proliferation Assay (Promega, Madison, Wis., USA), according to the manufacturer's instructions. Data are mean with standard deviation from three independent experiments in technical triplicates. For the screening of 160 compounds from the UC library, the cell metabolic activity was assessed at 24 hours of treatment of MOLM-13 cells. Top 15 candidates were re-screened at 2 μM, and the cell metabolic activity was determined at 24 hours of treatment. In certain experiments, cell viability was determined by staining the cells with trypan blue at a 1/2 dilution and counting total number of viable cells upon treatment with UC-764864 or DMSO control. The cells were counted daily for 4 days using an automated cell counter (Countess II FL from Life Technologies). […] UC-764864 was added at the indicated concentrations and cells were incubated with drug for 3 days, at which point cell viability was measured by MTS according to manufacturer's instructions.
For orientation: Tetrazolium dyes change colour on reduction, which living cells bring about.

Series [1] deals with AML cells (THP-1, MOLM-13, OCI-AML2, OCI-AML3, MDSL). The series can be described thus: Colony formation (clonogenic) assay in AML/MDS cell lines. Type of series: cell-based, human. The following applies: 2 μM. The procedure:
In order to determine viability after UBE2N knockdown or inhibition, 1×10^6 AML cells were washed with PBS and mixed with pre-diluted APC-conjugated Annexin V (BD Pharmigen, Franklin Lakes, N.J.) and Propidium iodide (PI) (Invitrogen ThermoFisher 00-6990-42, Waltham, Mass.). Cells were stained at room temperature for 15 minutes and suspended in 0.5 ml of Annexin V incubation buffer (eBiosciences 88-8007-74, San Diego, Calif.) for analysis using a BD FACS Canto System (BD Biosciences, San Jose, Calif.). For UBE2N knockdown experiments, PI−/GFP+ cells were sorted using a MoFlo XDP sorter (Beckman Coulter, Brea, Calif.) and plated in methylcellulose (StemCell Technologies H4236, Vancouver, CA) at 1000 cells/ml in 35 mm culture dishes. For UBE2N inhibition experiments, cell lines were plated in methycellulose (StemCell Technologies H4236, Vancouver, CA) at the indicated concentrations of inhibitor. Cells were incubated at 37° C. and 5% CO2. Colonies were scored after 7 days in culture. For UBE2N or UBE2N C87S overexpression experiments, MOLM-13 cells were transduced with lentivectors overexpressing UBE2N wild type or mutant in the presence of polybrene (8 μg/ml). […] Colonies were scored at 7 days. […] Colonies were manually scored at 14-16 days after plating or counted with STEMVision (StemCell Technologies, Vancouver, CA).

The subject of a further series is MOLM-13 cells. The series can be described thus: MTS assay of MOLM-13 cells overexpressing UBE2N wild type or UBE2N C87S. It counts as cell-based, human. The source says:
For knockdown studies, UBE2N shRNA template oligonucleotides from the TRC shRNA library cloned into the pLKO.1 TRC cloning vector (Addgene: #10878) and pLKO.1 TRC cloning vector (Table 3). The puromycin gene in pLKO.1 was replaced with GFP. pLKO.1 TRC control was used as non-silencing control (Addgene: #10879). For production of lentiviral particles, lentiviral shRNA expression constructs were transfected together with packaging vectors into 293T producer cells using TransIT transfection reagent (Mirus, MIR 2306), supernatants were harvested after 48 and 72 hours, and concentrated by ultracentrifugation. […] UBE2N knockdown efficiency was determined by quantitative real time PCR (qRT-PCR) and western blot and quantified as described elsewhere. […] Levels of overexpression of UBE2N were determined by western blot.
AML cell lines (5×10^3 cells/well) were seeded in 96-well plates and grown for 24 to 96 h in serum (10%)-containing medium in the presence or absence of inhibitors at the indicated concentrations. Proliferation was analyzed by means of an MTS assay using the CellTiter 96 Aqueous One Solution Cell Proliferation Assay (Promega, Madison, Wis., USA), according to the manufacturer's instructions. […] For the screening of 160 compounds from the UC library, the cell metabolic activity was assessed at 24 hours of treatment of MOLM-13 cells. […]

Series [2] is described as follows: Microsomal stability (human liver microsomes). It counts as in vitro ADME. In general terms: Microsomes from liver hold many membrane-bound enzymes, among them those of drug oxidation.
Another series concerns MOLM-13 and THP-1 cells. The series can be described thus: Immunoblot / qRT-PCR of NF-κB, STAT1 and IRF signaling. It counts as cell-based, human. The following applies: 2 μM. The procedure:
mRNA expression of selected genes was corroborated by quantitative reverse transcriptase PCR (see primer sequences in Table 2) using cDNA with SYBR® Green or Taqman® gene expression assays (Applied Biosystems, Waltham, Mass.) on the StepOnePlus from Applied Biosystems. Abundance of each transcript was calculated using the Pfaffl Method. Actin or GAPDH were used as housekeeping genes.
For immunoblots, total protein lysates were obtained from cells by lysing the samples in cold RIPA buffer (50 mM Tris-HCl, 150 mM NaCl, 1 mM EDTA, 1% Triton X-100 and 0.1% SDS), in the presence of PMSF, sodium orthovanadate, protease and phosphatase inhibitors. After being re-suspended in RIPA, cells were lysed in the cold room with rocking for 15 min. Protein concentration was evaluated by a BCA assay (Pierce, Waltham, Mass.). SDS sample buffer was added to the lysates and the proteins were separated by SDS-polyacrylamide gel electrophoresis, transferred to PVDF or nitrocellulose membranes, and analyzed by immunoblotting. […] Membranes were imaged with Biorad ChemiDoc™ MP and analyzed with Image lab software 6.0.1 (Biorad, Hercules, Calif.) or Image J [67].
In general terms: A western blot detects proteins with antibodies after separation by electrophoresis.

Regarding `CCc1ccc(C(=O)C=CSc2nc3ccc(C)cc3[nH]2)cc1` [UC-764864, 1-(4-ethylphenyl)-3-[(6-methyl-1H-benzimidazol-2-yl)sulfanyl]prop-2-en-1-one], the “proliferation capacity of cord blood CD34+ cells” value in the series on Cord Blood CD34+ is on record as “did not affect”. This compound also showed a pIC50 in the series on Cord Blood CD34+ (Homo sapiens, Cord Blood CD34+, MTS, 24 hours) of under 5.00. Further, the “reduction in colony formation vs vehicle” value in series [1] is 20-95%. In the series on MOLM-13 cells, the “viability of MOLM-13 cells expressing UBE2N(C87S)” value is “did not affect” and the “viability of MOLM-13 cells expressing wild-type UBE2N” value is “significantly suppressed”. The “metabolism in human liver microsomes” value in series [2] is on record as “readily metabolized”. Further, in the series with MOLM-13 and THP-1 cells, the “baseline NF-κB, STAT1, IRF7 and IRF1 activity in UBE2N-dependent AML cells” value is “inhibition”.
